Results from patent US20240124443A1, “PLASMIN INHIBITOR, PREPARATION METHOD THEREFOR, AND APPLICATION THEREOF” (SCINNOHUB PHARMACEUTICAL CO., LTD, priority 2021, published 2024).
Where a name gives a salt, the structure may show the parent alone. Read-outs that look alike come from different tables or passages of the source.

System: degradation of plasma clots
Assay: Plasma clot lysis assay
Assay type: biochemical, human
Procedure: To determine the inhibitory effect of the compounds of the invention on the degradation of plasma clots.
3.1 Collect fresh healthy human blood, mix 1 part of anticoagulant (0.109 M trisodium citrate) with 9 parts of blood, centrifuge at 2000×g for 20 min at room temperature, collect the supernatant (plasma), sub-package and store at −80° C. for later use.
3.2 On the day of experiment, the plasma was thawed in a water bath at 37° C., and all reagents except tPA were pre-warmed at 37° C.
3.3 Add 12.5 μL of 80 mM CaCl2 (HEPES buffer, pH 7.4) to a 96-well plate, and then add 25 μL of different concentrations of test compound diluted with normal saline, add an equal volume of normal saline to the negative control well.
3.4 Mix 50 μL of pre-warmed plasma with 12.5 μL of 4 nM tPA (HEPES buffer, pH 7.4), immediately add to a 96-well plate, measure the absorbance at 405 nm every 2 minutes, continuously for 15 hours.
The time corresponding to the median of the absorption value in the descending section—the time corresponding to the median of the absorption value in the ascending section is the plasma clot degradation time (Clot lysis time). Taking the plasma clot lysis time of the negative control well as a reference, calculate the relative value of the plasma clot lysis time in the wells treated with different concentrations of the compound and the plasma clot lysis time of the negative control well to obtain the inhibition rate:
Inhibition rate%=(1−Clot lysis time of negative control well/Clot lysis time of compound treated well)×100%
Taking the log value of the compound concentration as the X-axis, and the percentage inhibition rate as the Y-axis, and dose-response curves were fitted with the software GraphPad Prism 5 by using log (inhibitor) vs. Response-Variable slope to derive IC50 values of compounds inhibiting the degradation of plasma clots.
Formula: Y=min+(max−min)/(1+10^((LogIC50−X)×Hillslope).

[1] = human plasma, tPA, inhibition of plasma clot degradation in vitro relative to tranexamic acid

| SMILES | IC50 ratio (IC50 Examples/IC50 Tranexamic acid) [1] | IC50 ratio (IC50 Examples/IC50 Tranexamic acid) |
| --- | --- | --- |
| CC(C)C1Cc2nc(C(=O)O)ccc2CN1.Cl (stereo not drawn) [Example 37] | 0.18 |  |
| Cl.O=C(O)c1ccc2c(n1)CC(CCCCO)NC2 (stereo not drawn) [Example 10, 7-(4-hydroxybutyl)-5,6,7,8-tetrahydro-1,6-naphthyridine-2-carboxylic acid hydrochloride] | 0.18 |  |
| CC(C)(C)CCC1Cc2nc(C(=O)O)ccc2CN1.Cl (stereo not drawn) [Example 40] | 0.18 |  |
| Cl.O=C(O)c1ccc2c(n1)C(N1CCOC(Cc3ccccc3)C1)CNC2 (stereo not drawn) [Example 15, 8-(2-benzylmorpholino)-5,6,7,8-tetrahydro-1,6-naphthyridine-2-carboxylic acid hydrochloride] | 0.57 |  |
| Cl.O=C(O)c1ccc2c(n1)C(N1CCCCC1)CNC2 (stereo not drawn) [Example 19] | 5.75 |  |
| CC(C)CC1(CC(C)C)Cc2nc(C(=O)O)ccc2CN1.Cl [Example 48] | 0.42 |  |
| CCCC1Cc2nc(C(=O)O)ccc2CN1.Cl (stereo not drawn) [Example 39] | 0.17 |  |
| Cl.O=C(O)c1ccc2c(n1)C(N1CC[S+]([O-])CC1)CNC2 (stereo not drawn) [Example 21] | 0.14 |  |
| O=C(O)c1ccc2c(n1)CC(CNCCCO)NC2 (stereo not drawn) [Example 11, 7-(((3-hydroxypropyl)amino)methyl)-5,6,7,8-tetrahydro-1,6-naphthyridine-2-carboxylic acid dihydrochloride] | 2.58 |  |
| Cl.O=C(O)c1ccc2c(n1)CC(C(O)CCCO)NC2 (stereo not drawn) [Example 13, 7-(1,4-dihydroxybutyl)-5,6,7,8-tetrahydro-1,6-naphthyridine-2-carboxylic acid hydrochloride] |  | 1.63 |
| CC(C)(O)C1Cc2nc(C(=O)O)ccc2CN1.Cl (stereo not drawn) [Example 24] | 1.67 |  |
| Cl.O=C(O)c1ccc2c(n1)CC(CCc1ccccc1)NC2 (stereo not drawn) [Example 35] | 0.12 |  |
| CC(C)CCC1Cc2nc(C(=O)O)ccc2CN1.Cl (stereo not drawn) [Example 38] | 0.13 |  |
| CC(C)C(O)C1Cc2nc(C(=O)O)ccc2CN1.Cl (stereo not drawn) [Example 33] | 0.53 |  |
| Cl.O=C(O)c1ccc2c(n1)CC(CCCCCO)NC2 (stereo not drawn) [Example 28] | 0.27 |  |
| Cl.O=C(O)c1ccc2c(n1)C(N1CCSCC1)CNC2 (stereo not drawn) [Example 20] | 0.50 |  |
| Cl.O=C(O)c1ccc2c(n1)CC(CC1CCCCC1)NC2 (stereo not drawn) [Example 41] | 0.12 |  |
| Cl.O=C(O)c1ccc2c(n1)CC(COCCCO)NC2 (stereo not drawn) [Example 7, 7-((3-hydroxypropoxy)methyl)-5,6,7,8-tetrahydro-1,6-naphthyridine-2-carboxylic acid hydrochloride] | 0.25 |  |
| Cl.O=C(O)c1ccc2c(n1)CC(COCCO)NC2 (stereo not drawn) [Example 32] | 0.61 |  |
| CCC1(CC)Cc2nc(C(=O)O)ccc2CN1.Cl [Example 45, 7,7-diethyl-5,6,7,8-tetrahydro-1,6-naphthyridine-2-carboxylic acid hydrochloride] | 0.57 |  |
| Cl.O=C(O)c1ccc2c(n1)CC(CO)(CO)NC2 [Example 25] | 6.36 |  |
| Cl.O=C(O)c1ccc2c(n1)C(OCCO)CNC2 (stereo not drawn) [Example 18] | 0.66 |  |
| Cl.O=C(O)c1ccc2c(n1)CC(C(O)c1ccccc1)NC2 (stereo not drawn) [Example 12, 7-(hydroxy(phenyl)methyl)-5,6,7,8-tetrahydro-1,6-naphthyridine-2-carboxylic acid hydrochloride] | 0.88 |  |
| Cl.O=C(O)c1ccc2c(n1)CC(CCCc1ccccc1)NC2 (stereo not drawn) [Example 34] | 0.11 |  |
